Results: EP2199292A1, “7-azaindirubins, 7'-azaindirubins, 7-7'-diazaindirubin and the corresponding 3'-oxime ether derivates: production thereof, their production and use as a medicament” (Technische Universität Kaiserslautern, priority 2008, dated 2010)
Read-outs that look alike come from different tables or passages of the source.

Legend:
[1] = tested on: murine C6 glioblastoma cells; settings: compared with parent compound 5-methylindirubin; WO 03/070703; cited from earlier work
human cancer cell lines = assay: Antiproliferative activity against human cancer cell lines, compared with indirubin; format: cell-based; settings: as compared to the parent molecule
Method: (§1) The antiproliferative activity was determined using the Sulforhodamin B assay (SRB assay) as reported previously (Vatter et al. 2005, Int. J. Clin. Pharmacal.Ther. 43, 607). Table 1: Inhibition of tumor cell proliferation, SRB assay.

MCF7 = assay: Inhibition of tumor cell proliferation, Sulforhodamin B assay (SRB assay), MCF7; format: cell-based; settings: Homo sapiens
Method: as §1

HT29 = assay: Inhibition of tumor cell proliferation, Sulforhodamin B assay (SRB assay), HT29; format: cell-based; settings: Homo sapiens, HT-29
Method: as §1

In the case of `Cc1cc2c(cc1O)NC(=O)C2=C1Nc2ccccc2C1=O`, the “inhibition of murine C6 glioblastoma cells” value [1] is listed as “as effective as the parent compound”.

For `O=C1Nc2ccccc2C1=C1Nc2ncccc2C1=O` [E843, 7'-Azaindirubin], the antiproliferative activity (human cancer cell lines) was “markedly augmented”.

In the case of `O=C1Nc2ncccc2C1=C1Nc2ncccc2C1=O` [E864, 7,7'-Diazaindirubin], the IC50 (MCF7; MCF7, MCF-7 breast cancer cells, IC50 values ranging down to, read-out: inhibition of proliferation IC50) is reported as at least 2 nM, the IC50 (MCF7; MCF7, SRB assay, read-out: Inhibition of cell proliferation IC50) is reported as 7 nM and the IC50 (HT29; HT29, SRB assay, read-out: Inhibition of cell proliferation IC50) is reported as 5 nM. It also gave an IC50 (HT29; HT29 colon tumor cells, IC50 values ranging down to, read-out: inhibition of proliferation IC50) of at least 2 nM.

For `O=C1Nc2ncccc2/C1=C1/Nc2ccccc2C1=O` [Example 12, 7-Azaindirubin], the antiproliferative activity (human cancer cell lines) was “markedly augmented”.
